Measured values as given in US20060111305A1, “Metabolites of certain [1,4]diazepino[6,7,1-ij]quinoline derivatives and methods of preparation and use thereof” (Wyeth, priority 2004, published 2006).
Where two headings read alike, the source gives them in different places.

What was measured:
[1] = Incubation of [14C]DCDQ with mouse liver microsomes; format: in vitro ADME, CD-1 mice
Protocol: [^14C]DCDQ was mixed with non-radiolabeled DCDQ (1:3 or 1:5) in the incubations. Microsomal incubations consisted of [^14C]DCDQ, magnesium chloride (10 mM) and liver microsomes incubated in 0.5 mL of 0.1 M potassium phosphate buffer, pH 7.4. [^14C]DCDQ (20 μL) in water was added to the incubation tubes containing buffer, magnesium chloride solution and microsomes. After mixing, the tubes were pre-incubated for 2 minutes in a shaking water bath at 37° C. The reactions were initiated by the addition of UDPGA or the NADPH regenerating system. UDPGA was added to incubations as a 50 μL aliquot of a 20 mM solution in water, to give a final concentration of 2 mM. An NADPH regenerating system (30 μL) was added to incubations to evaluate CYP450-mediated metabolism. The NADPH regenerating system consisted of glucose-6-phosphate (2 mg/mL), glucose-6-phosphate dehydrogenase (0.8 units/mL) and NADP^+ (2 mg/mL). Control incubations were conducted under the same conditions, but without the NADPH generating system, UDPGA or microsomes. All incubations were performed in duplicate. Incubations were stopped by the addition of 0.5 mL ice-cold methanol. Samples were vortex-mixed. Denatured proteins were separated by centrifugation at 4300 rpm and 4° C. for 10 minutes (Model T21 super centrifuge, Sorvall). The protein pellets were extracted with 0.5 mL of methanol. The supernatant was combined for each sample, mixed and evaporated to a volume of about 0.3 mL under a nitrogen stream in a Zymark TurboVap LV evaporator (Caliper Life Science, Hopkinton, Mass.). The concentrated sample was centrifuged and aliquots were radioassayed and analyzed by HPLC. This method recovered an average of 92.1% of the radioactivity from the reaction mixture.
To evaluate species differences in cytochrome P450- and UGT-mediated metabolism, [^14C]DCDQ was incubated for 20 minutes with 0.5 mg/mL liver microsomal proteins from mice, rats, dogs or humans in the presence of the NADPH regenerating system or UDPGA. The assay conditions were the same as described above, and DCDQ concentrations were 12 μM and 56 μM for cytochrome P450- and UGT-mediated metabolism, respectively.
A Waters model 2690 HPLC system (Waters Corp., Milford, Mass.) with a built-in autosampler was used for analysis. Separations were accomplished on a Phenomenex Luna C18(2) column (2×150 mm, 5 μm) (Phenomenex, Torrance, Calif.) coupled with a filter (4×2 mm) cartridge. A variable wavelength UV detector set to monitor 250 nm and Flo-One β Model A525 radioactivity flow detector (Perkin Elmer) with a 250 μL LQTR flow cell were used for data acquisition. The flow rate of Ultima Flow M scintillation fluid was 1 mL/min, providing a mixing ratio of scintillation cocktail to mobile phase of 5:1. […]

[2] = Dog urinary excretion and metabolite profiles after oral capsule of [14C]DCDQ; format: in vivo, beagle dogs
Protocol: Blood samples were collected from the jugular vein at 2, 4, 8, 24 and 48 hour after dose administration into tubes containing potassium EDTA as the anticoagulant and then placed on ice. Aliquots of 50 μL were removed for combustion and determination of radioactivity content. Plasma was immediately obtained from the remaining blood by centrifugation at 4° C. Urine samples were collected into tubes on dry ice at intervals of 0-8, 8-24 and 24-48 hour post-dose. Fecal samples were collected at intervals of 0-8, 8-24 and 24-48 hour post-dose at room temperature, and were homogenized. The biological specimens were stored at approximately −70° C. until analysis.
(§1) For plasma profiles, a TopCount NXT radiometric microplate reader (Perkin Elmer) was used to analyze the radioactivity in collected HPLC fractions. The limit of detection by TopCount was about 1 ng equivalent/mL. A Flo-One β Model A525 radioactivity detector (Perkin Elmer) with a 250 μL LQTR flow cell was used to acquire data for urine and fecal samples. The flow rate of Ultima Flow M scintillation fluid was 1 mL/min, providing a mixing ratio of scintillation cocktail to mobile phase of 5:1. The limits of detection by Flo-One detector were about 200 ng equivalents/mL for urine and 12 ng equivalents/g for feces.
Urine was analyzed for radioactivity concentration and analyzed by HPLC with radioactivity flow detection for metabolite profiles by direct injection to the HPLC column. LC/MS analyses for metabolite identification were also carried out with urine samples.
(§2) A Waters model 2690 HPLC system (Waters Corp., Milford, Mass.) with a built-in autosampler was used for analysis. Separations were accomplished on a Phenomenex Luna C18(2) column (150×2.0 mm, 5 μm) (Phenomenex, Torrance, Calif.). The sample chamber of the autosampler was maintained at 4° C., while the column was at ambient temperature of about 20° C. A variable wavelength UV detector set to monitor 250 nm and a Flo-One β Model A525 radioactivity detector were used for data acquisition. The HPLC mobile phase consisted of 10 mM ammonium acetate, pH 4.5 (A) and acetonitrile (B), and was delivered at 0.2 mL/min. Chromatographic condition A was used for dose analysis, while condition B was used for analysis of urine and plasma, brain and fecal extracts.

[3] = Dog plasma metabolite profiles after single 15 mg/kg oral capsule of [14C]DCDQ; format: in vivo, beagle dogs
Protocol: as §1
Plasma samples were analyzed for metabolite profiles by HPLC. Aliquots of plasma were mixed with two volumes of cold methanol containing 0.1% trifluoroacetic acid (TFA), placed on ice for about 2 minutes and then centrifuged. The supernatant fluid was transferred to a clean tube and evaporated at 22° C. under nitrogen in a Zymark TurboVap LV (Caliper Life Sciences, Hopkinton, Mass.) to a volume of about 0.3 mL. The residue was centrifuged, the supernatant volume measured and extraction efficiency determined by analysis of duplicate 20 μL aliquots for radioactivity. A 200 μL aliquot of the supernatant was injected onto the HPLC column and the effluent was collected at 20 second intervals into 96-well Lumaplates (Perkin Elmer). The plates were dried overnight in an oven at 40° C. and analyzed by a TopCount. Plasma extracts were also analyzed by LC/MS.
as §2

[4] = 0-8 hr, dog no. not printed (dog 1 by footnote a)
[5] = male, beagle, dog, plasma, oral, 15 mg/kg, 2 hr, dog 2, read-out: Estimated plasma concentration in dogs
[6] = male, beagle, dog, plasma, oral, 15 mg/kg, 4 hr, dog 2, read-out: Estimated plasma concentration in dogs
[7] = male, beagle, dog, plasma, oral, 15 mg/kg, 8 hr, dog 1, read-out: Estimated plasma concentration in dogs

Compound	Chromatographic distribution of radioactivity in dog urine [2, 4]	Chromatographic distribution of radioactivity in dog urine ([2]; 24-48 hr, dog 1)	Chromatographic distribution of radioactivity in dog urine ([2]; 24-48 hr, dog 2)	Chromatographic distribution of radioactivity in dog plasma ([3]; 2 hr, dog 2)	Chromatographic distribution of radioactivity in dog plasma ([3]; 4 hr, dog 2)	Chromatographic distribution of radioactivity in dog plasma ([3]; 8 hr, dog 1)	Estimated plasma concentration in dogs ([3]; 8 hr, dog 2)	Estimated plasma concentration in dogs ([3]; 8 hr, dog 3)	Estimated plasma concentration in dogs ([3]; 24 hr, dog 3)	Estimated plasma concentration in dogs ([3]; 48 hr, dog 1)	Estimated plasma concentration in dogs ([3]; 48 hr, dog 3)	concentration at 2 h [3, 5]	concentration at 4 h [3, 6]	concentration at 8 h [3, 7]	also measured
[O-][N+]12CCN=Cc3cccc(c31)[C@H]1CCC[C@H]1C2 (stereo partly shown) [Metabolite M5, DCDQ imine N-oxide]	5.9%	8.5%	4.0%	2.9%	5.3%	4.0%	BQL	BQL	BQL	BQL	BQL	36.4 ng/mL	86.6 ng/mL	21.7 ng/mL	metabolite detected in microsomal incubation ([1]; NADPH regenerating system, 12 μM DCDQ, 20 min): not mouse or rat; Chromatographic distribution of radioactivity in dog plasma ([3]; 2 hr, dog 1): 12%; Chromatographic distribution of radioactivity in dog plasma ([3]; 4 hr, dog 1): 6.6%; Estimated plasma concentration in dogs ([3]; 24 hr, dog 1): BQL; Estimated plasma concentration in dogs ([3]; 24 hr, dog 2): BQL; Chromatographic distribution of radioactivity in dog plasma ([3]; 48 hr, dog 2): 2.8%; concentration at 2 h ([3]; male, beagle, dog, plasma, oral, 15 mg/kg, 2 hr, dog 1, read-out: Estimated plasma concentration in dogs): 43.1 ng/mL; concentration at 4 h ([3]; male, beagle, dog, plasma, oral, 15 mg/kg, 4 hr, dog 1, read-out: Estimated plasma concentration in dogs): 33.1 ng/mL; concentration at 48 h ([3]; male, beagle, dog, plasma, oral, 15 mg/kg, 48 hr, dog 2, read-out: Estimated plasma concentration in dogs): 18.9 ng/mL
O=C(O)[C@H]1O[C@@H](OC(=O)N2CCN3C[C@@H]4CCC[C@@H]4c4cccc(c43)C2)[C@H](O)[C@@H](O)[C@@H]1O [Metabolite M6, carbamoyl glucuronide of DCDQ]	13%	5.8%	3.5%	19%	13%	7.0%	BQL	BQL	BQL	BQL	BQL	239 ng/mL	215 ng/mL	37.9 ng/mL	metabolite detected in microsomal incubation ([1]; UDPGA, 56 μM DCDQ): not mouse or rat; Chromatographic distribution of radioactivity in dog urine ([2]; 8-24 hr, Mean): 5.8%; Chromatographic distribution of radioactivity in dog urine ([2]; 8-24 hr, dog 1): 6.1%; Chromatographic distribution of radioactivity in dog urine ([2]; 8-24 hr, dog 2): 7.6%; Chromatographic distribution of radioactivity in dog urine ([2]; 8-24 hr, dog 3): 3.6%; Chromatographic distribution of radioactivity in dog urine ([2]; 24-48 hr, Mean): 4.7%; Chromatographic distribution of radioactivity in dog urine ([2]; 24-48 hr, dog 3): 4.3%; Chromatographic distribution of radioactivity in dog urine ([2]; 24-48 hr, dog 4): 5.9%; Estimated plasma concentration in dogs ([3]; 2 hr, dog 1): BQL; Estimated plasma concentration in dogs ([3]; 4 hr, dog 1): BQL; Chromatographic distribution of radioactivity in dog plasma ([3]; 24 hr, dog 1): 17%; Chromatographic distribution of radioactivity in dog plasma ([3]; 24 hr, dog 2): 5.6%; Estimated plasma concentration in dogs ([3]; 48 hr, dog 2): BQL; concentration at 24 h ([3]; male, beagle, dog, plasma, oral, 15 mg/kg, 24 hr, dog 1, read-out: Estimated plasma concentration in dogs): 258 ng/mL; concentration at 24 h ([3]; male, beagle, dog, plasma, oral, 15 mg/kg, 24 hr, dog 2, read-out: Estimated plasma concentration in dogs): 62.1 ng/mL
